Assay results from patent US11780821B2, “Inhibitors of fibroblast activation protein” (Praxis Biotech LLC, priority 2017, dated 2023).
Like-named read-outs stand apart in the source and are kept apart here.

Experiments:
Assay type in all cases: biochemical
[1] = target: T1, recombinant human FAPα (rhFAPα) (Homo sapiens, UniProt Q12884); test: FAPα enzymatic exopeptidase (dipeptidase) activity assay; conditions: for inhibition at 1 µM: read-out: rhFAPα (% exo inh @ 1 μM); for IC50: exopeptidase, read-out: rhFAPα (exo IC50)
T1 construct: purchased R&S system (so in the source)
T1 sequence (Q12884 1-760): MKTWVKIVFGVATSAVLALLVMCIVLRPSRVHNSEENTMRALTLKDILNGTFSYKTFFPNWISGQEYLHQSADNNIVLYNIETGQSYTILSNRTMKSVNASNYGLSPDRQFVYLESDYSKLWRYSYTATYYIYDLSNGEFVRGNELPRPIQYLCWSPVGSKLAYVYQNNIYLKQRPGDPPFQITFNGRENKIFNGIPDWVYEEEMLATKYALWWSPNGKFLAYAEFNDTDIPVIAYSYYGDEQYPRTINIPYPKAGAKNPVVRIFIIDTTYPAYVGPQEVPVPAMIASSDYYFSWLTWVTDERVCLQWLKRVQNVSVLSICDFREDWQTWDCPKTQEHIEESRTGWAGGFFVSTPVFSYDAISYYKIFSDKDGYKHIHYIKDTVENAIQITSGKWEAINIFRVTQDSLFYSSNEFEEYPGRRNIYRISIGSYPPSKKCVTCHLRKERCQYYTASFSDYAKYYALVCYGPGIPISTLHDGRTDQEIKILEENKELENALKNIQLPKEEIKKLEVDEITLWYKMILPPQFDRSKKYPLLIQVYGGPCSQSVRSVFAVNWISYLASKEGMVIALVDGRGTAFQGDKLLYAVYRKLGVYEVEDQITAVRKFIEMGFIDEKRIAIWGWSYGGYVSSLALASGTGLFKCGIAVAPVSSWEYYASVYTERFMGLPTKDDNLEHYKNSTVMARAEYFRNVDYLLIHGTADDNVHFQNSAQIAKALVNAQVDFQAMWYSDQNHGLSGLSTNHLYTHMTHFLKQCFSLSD

[2] = target: T2, recombinant human DPP9 (rhDPP9) (Homo sapiens, UniProt Q86TI2); test: DPP9 enzymatic activity assay; conditions: H-Gly-Pro-AMC substrate
T2 construct: purchased R&S system (so in the source)
Method: (§1) 7-Amino-4-Methylcoumarin (AMC) release was detected by measuring fluorescence at Ex/Em 380/460 nm using a Multifunction Microplate Reader (Synergy 4, Biotek). All measurements were carried out in triplicate.

[3] = target: T3, recombinant human DPPIV (rhDPPIV) (Homo sapiens, UniProt P27487); test: DPPIV enzymatic activity assay; conditions: H-Gly-Pro-pNA substrate
T3 construct: purchased R&S system (so in the source)

[4] = target: T4, recombinant human PREP (rhPREP) (Homo sapiens, UniProt P48147); test: PREP enzymatic activity assay; conditions: Z-Gly-Pro-AMC substrate
T4 sequence (P48147 1-710): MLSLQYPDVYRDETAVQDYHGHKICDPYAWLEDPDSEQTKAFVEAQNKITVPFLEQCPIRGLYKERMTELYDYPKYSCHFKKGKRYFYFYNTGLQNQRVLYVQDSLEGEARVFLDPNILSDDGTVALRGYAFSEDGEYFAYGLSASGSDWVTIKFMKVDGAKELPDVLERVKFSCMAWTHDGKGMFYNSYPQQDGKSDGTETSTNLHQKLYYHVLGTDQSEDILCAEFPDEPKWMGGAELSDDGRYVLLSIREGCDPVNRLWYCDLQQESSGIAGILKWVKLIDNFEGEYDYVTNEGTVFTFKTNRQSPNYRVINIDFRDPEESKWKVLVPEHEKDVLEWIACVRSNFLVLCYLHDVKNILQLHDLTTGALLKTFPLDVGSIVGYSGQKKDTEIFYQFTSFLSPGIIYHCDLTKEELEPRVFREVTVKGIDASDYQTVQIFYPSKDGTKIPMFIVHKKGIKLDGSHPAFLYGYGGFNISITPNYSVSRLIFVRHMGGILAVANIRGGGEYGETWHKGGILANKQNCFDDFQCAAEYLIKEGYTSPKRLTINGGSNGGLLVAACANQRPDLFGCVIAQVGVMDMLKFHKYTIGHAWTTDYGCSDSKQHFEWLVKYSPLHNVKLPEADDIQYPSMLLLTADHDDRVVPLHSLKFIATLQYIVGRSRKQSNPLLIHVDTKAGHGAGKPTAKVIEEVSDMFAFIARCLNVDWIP
Method: as §1

[5] = 1 μM test compound, Z-Gly-Pro-AMC substrate

T2 sequence (Q86TI2 whole entry): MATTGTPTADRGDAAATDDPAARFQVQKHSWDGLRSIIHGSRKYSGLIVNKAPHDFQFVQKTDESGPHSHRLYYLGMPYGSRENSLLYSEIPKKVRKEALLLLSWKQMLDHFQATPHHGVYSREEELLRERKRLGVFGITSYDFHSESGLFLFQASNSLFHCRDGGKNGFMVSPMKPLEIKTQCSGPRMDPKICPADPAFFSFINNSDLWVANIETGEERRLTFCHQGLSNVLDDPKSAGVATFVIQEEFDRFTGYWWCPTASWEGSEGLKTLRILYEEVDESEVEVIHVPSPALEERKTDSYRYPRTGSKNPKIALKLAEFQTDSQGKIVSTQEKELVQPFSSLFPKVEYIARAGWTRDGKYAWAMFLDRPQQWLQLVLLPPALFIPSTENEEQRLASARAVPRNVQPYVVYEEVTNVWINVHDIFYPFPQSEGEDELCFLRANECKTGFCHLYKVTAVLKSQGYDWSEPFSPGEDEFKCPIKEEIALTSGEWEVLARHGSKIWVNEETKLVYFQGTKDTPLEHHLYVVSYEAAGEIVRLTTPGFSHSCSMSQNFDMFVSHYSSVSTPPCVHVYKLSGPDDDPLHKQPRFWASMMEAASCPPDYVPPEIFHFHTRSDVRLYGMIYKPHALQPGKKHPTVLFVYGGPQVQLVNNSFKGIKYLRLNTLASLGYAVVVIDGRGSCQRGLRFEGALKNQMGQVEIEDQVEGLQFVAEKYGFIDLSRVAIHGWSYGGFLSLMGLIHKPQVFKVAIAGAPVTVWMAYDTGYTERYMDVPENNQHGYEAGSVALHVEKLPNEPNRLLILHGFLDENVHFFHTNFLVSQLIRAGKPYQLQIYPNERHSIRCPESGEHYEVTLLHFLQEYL
T3 sequence (P27487 whole entry): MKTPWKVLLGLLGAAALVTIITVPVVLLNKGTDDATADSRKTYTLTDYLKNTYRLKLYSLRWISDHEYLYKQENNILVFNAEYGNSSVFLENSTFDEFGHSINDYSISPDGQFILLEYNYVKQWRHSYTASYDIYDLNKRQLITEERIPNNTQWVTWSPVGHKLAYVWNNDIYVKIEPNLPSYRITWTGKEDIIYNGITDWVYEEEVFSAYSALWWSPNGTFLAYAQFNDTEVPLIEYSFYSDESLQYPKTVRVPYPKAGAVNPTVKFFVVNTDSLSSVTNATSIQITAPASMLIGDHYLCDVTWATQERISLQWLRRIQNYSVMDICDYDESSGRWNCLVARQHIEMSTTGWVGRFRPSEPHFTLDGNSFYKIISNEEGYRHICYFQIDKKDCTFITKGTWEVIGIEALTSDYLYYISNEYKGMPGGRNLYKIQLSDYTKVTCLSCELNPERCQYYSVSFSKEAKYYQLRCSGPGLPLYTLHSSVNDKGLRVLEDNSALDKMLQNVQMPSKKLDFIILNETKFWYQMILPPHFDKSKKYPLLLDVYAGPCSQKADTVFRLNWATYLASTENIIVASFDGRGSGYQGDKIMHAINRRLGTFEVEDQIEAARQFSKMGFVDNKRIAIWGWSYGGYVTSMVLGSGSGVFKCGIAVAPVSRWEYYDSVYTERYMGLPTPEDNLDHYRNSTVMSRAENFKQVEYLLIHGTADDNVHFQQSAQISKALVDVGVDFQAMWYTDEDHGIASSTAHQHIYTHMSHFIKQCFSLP

Compound	inhibition at 1 µM [1, 5] [%]	IC50 [2] [nM]	IC50 [3] [nM]	IC50 [4] [nM]	IC50 ([1]; Table 2, Z-Gly-Pro-AMC) [nM]	IC50 ([1]; Table 3) [nM]	inhibition at 1 µM [1] [%]
N#C[C@@H]1CC(F)(F)CN1C(=O)CNC(=O)c1ccncc1C1=CCCCC1 [Compound 43, N-(2-((S)-2-cyano-4,4-difluoropyrrolidin-1-yl)-2-oxoethyl)-3-(cyclohex-1-en-1-yl)isonicotinamide]	> 50	1000 to 10000	> 10000	> 10000	< 1000	< 1000	–
Cn1ccc2c(-c3cnccc3C(=O)NCC(=O)N3CC(F)(F)C[C@H]3C#N)cccc21 [Compound 66, (S)—N-(2-(2-cyano-4,4-difluoropyrrolidin-1-yl)-2-oxoethyl)-3-(1-methyl-1H-indol-4-yl)isonicotinamide]	> 50	> 10000	> 10000	> 10000	< 1000	< 1000	–
N#C[C@@H]1CC(F)(F)CN1C(=O)CNC(=O)c1coc(=O)c2ccccc12 [Compound 22, (S)—N-(2-(2-cyano-4,4-difluoropyrrolidin-1-yl)-2-oxoethyl)-1-oxo-1H-isochromene-4-carboxamide]	> 50	–	> 10000	1000 to 10000	< 1000	< 1000	–
N#C[C@@H]1CC(F)(F)CN1C(=O)CNC(=O)c1ccc2nccc(-c3ccccc3)c2c1 [Compound 19, (S)—N-(2-(2-cyano-4,4-difluoropyrrolidin-1-yl)-2-oxoethyl)-4-phenylquinoline-6-carboxamide]	> 50	–	> 10000	> 10000	< 1000	< 1000	–
N#Cc1ccc(C(=O)NCC(=O)N2CC(F)(F)C[C@H]2C#N)cc1 [Compound 17, (S)-4-cyano-N-(2-(2-cyano-4,4-difluoropyrrolidin-1-yl)-2-oxoethyl)benzamide]	25 to 50	–	–	–	–	–	–
Cn1nc(C(=O)NCC(=O)N2CC(F)(F)C[C@H]2C#N)c2ccccc2c1=O [Compound 81]	< 25	–	–	–	–	–	–
N#C[C@H]1CC(F)(F)CN1C(=O)CNC(=O)c1ccncc1C1CC1 [compound 37]	–	–	–	–	–	–	> 50
N#Cc1ccc(C(=O)NCC(=O)N2CC(F)(F)C[C@H]2C#N)c(C(F)(F)F)c1 [Compound 18, (S)-4-cyano-N-(2-(2-cyano-4,4-difluoropyrrolidin-1-yl)-2-oxoethyl)-2-(trifluoromethyl)benzamide]	25 to 50	–	–	–	–	–	–
CCN1C(=O)CC[C@@H](C(=O)NCC(=O)N2CC(F)(F)C[C@H]2C#N)[C@@H]1c1ccccc1 [Compound 20, (2R,3R)—N-(2-((S)-2-cyano-4,4-difluoropyrrolidin-1-yl)-2-oxoethyl)-1-ethyl-6-oxo-2-phenylpiperidine-3-carboxamide]	25 to 50	–	–	–	–	–	–
COc1cnccc1C(=O)NCC(=O)N1CC(F)(F)C[C@H]1C#N [Compound 36]	> 50	–	> 10000	–	< 1000	< 1000	–
N#C[C@@H]1CC(F)(F)CN1C(=O)CCCNC(=O)c1c[nH]c(=O)c2ccccc12 [Compound 82, (S)—N-(4-(2-cyano-4,4-difluoropyrrolidin-1-yl)-4-oxobutyl)-1-oxo-1,2-dihydroisoquinoline-4-carboxamide]	< 25	–	–	–	–	–	–
N#C[C@@H]1CC(F)(F)CN1C(=O)CNC(=O)C1=NNC(=O)C2C=CC=CC12 (some centres unmarked) [Compound 80]	> 50	–	> 10000	–	< 1000	< 1000	–
N#C[C@@H]1CC(F)(F)CN1C(=O)C1(NC(=O)c2c[nH]c(=O)c3ccccc23)CC1 [Compound 23, (S)—N-(1-(2-cyano-4,4-difluoropyrrolidine-1-carbonyl)cyclopropyl)-1-oxo-1,2-dihydroisoquinoline-4-carboxamide]	< 25	–	–	–	–	–	–
N#Cc1ccc(C(=O)NCC(=O)N2CC(F)(F)C[C@H]2C#N)cc1F [Compound 15, (S)-4-cyano-N-(2-(2-cyano-4,4-difluoropyrrolidin-1-yl)-2-oxoethyl)-3-fluorobenzamide]	25 to 50	–	–	–	–	–	–
CC(NC(=O)c1c[nH]c(=O)c2ccccc12)C(=O)N1CC(F)(F)C[C@H]1C#N (stereo partly drawn) [Compound 25, N-(1-((S)-2-cyano-4,4-difluoropyrrolidin-1-yl)-1-oxopropan-2-yl)-1-oxo-1,2-dihydroisoquinoline-4-carboxamide]	–	–	–	–	–	–	< 25

Second part, led by results:

inhibition at 1 µM [1, 5] [%]	IC50 [2] [nM]	IC50 [3] [nM]	IC50 [4] [nM]	IC50 ([1]; Table 2, Z-Gly-Pro-AMC) [nM]	IC50 ([1]; Table 3) [nM]	Compound	inhibition at 1 µM [1] [%]
> 50	–	–	–	–	–	N#C[C@@H]1CC(F)(F)CN1C(=O)CNC(=O)c1ccn2nccc2c1 [Compound 85]	–
> 50	> 10000	> 10000	> 10000	< 1000	< 1000	N#C[C@@H]1CC(F)(F)CN1C(=O)CNC(=O)c1ccncc1NC1CCNCC1 [Compound 118, (S)—N-(2-(2-cyano-4,4-difluoropyrrolidin-1-yl)-2-oxoethyl)-3-(piperidin-4-ylamino)isonicotinamide]	–
> 50	> 10000	> 10000	> 10000	< 1000	< 1000	N#C[C@@H]1CC(F)(F)CN1C(=O)CNC(=O)c1ccncc1-c1ccc2c(c1)CCN2 [Compound 104, (S)—N-(2-(2-cyano-4,4-difluoropyrrolidin-1-yl)-2-oxoethyl)-3-(indolin-5-yl)isonicotinamide]	–
> 50	> 10000	> 10000	> 10000	< 1000	< 1000	N#C[C@@H]1CC(F)(F)CN1C(=O)CNC(=O)c1ccncc1Oc1ccccc1 [Compound 97, (S)—N-(2-(2-cyano-4,4-difluoropyrrolidin-1-yl)-2-oxoethyl)-3-phenoxyisonicotinamide]	–
< 25	–	–	–	–	–	N#C[C@@H]1CC(F)(F)CN1C(=O)CNC(=O)c1ccc(=O)[nH]c1-c1ccccc1 [compound 30]	–
25 to 50	–	–	–	–	–	COc1ccc(C(=O)NCC(=O)N2CC(F)(F)C[C@H]2C#N)c(-c2ccccc2)n1 [Compound 86, (S)—N-(2-(2-cyano-4,4-difluoropyrrolidin-1-yl)-2-oxoethyl)-6-methoxy-2-phenylnicotinamide]	–
25 to 50	–	–	–	–	–	N#C[C@@H]1CC(F)(F)CN1C(=O)CNC(=O)c1ccc2[nH]ncc2c1 [Compound 83]	–
> 50	1000 to 10000	–	–	< 1000	< 1000	N#C[C@@H]1CC(F)(F)CN1C(=O)CNC(=O)c1ccncc1CCc1ccccc1 [Compound 125, (S)—N-(2-(2-cyano-4,4-difluoropyrrolidin-1-yl)-2-oxoethyl)-3-phenethylisonicotinamide]	–
25 to 50	–	–	–	–	–	N#C[C@@H]1CC(F)(F)CN1C(=O)CNC(=O)c1cc2ccncc2o1 [Compound 84]	–
< 25	–	–	–	–	–	N#C[C@@H]1CC(F)(F)CN1C(=O)C1CC(NC(=O)c2c[nH]c(=O)c3ccccc23)C1 (some centres unmarked) [Compound 101]	–
> 50	1000 to 10000	–	–	< 1000	< 1000	N#C[C@@H]1CC(F)(F)CN1C(=O)CNC(=O)c1ccncc1/C=C/c1ccccc1 [Compound 124, (S,E)-N-(2-(2-cyano-4,4-difluoropyrrolidin-1-yl)-2-oxoethyl)-3-styrylisonicotinamide]	–
